Assay results published in patent publication US6828338B2, “Substituted polycyclic aryl and heteroaryl pyridines useful for selective inhibition of the coagulation cascade” (Pharmacia Corporation, priority 2000, dated 2004).

Target: T1, Human factor Xa (Homo sapiens, UniProt P00742)
T1 construct: leads from XII to XIIa to XIa to IXa and to the conversion of X to Xa; purchased Enzyme Research Laboratories, South Bend Ind
Experiment: Xa Assay
Assay type: biochemical
Procedure: Human factor Xa (0.3 nM) and 0.15 mM N-a-Benzyloxycarbonyl-D-arginyl-L-glycyl-L-arginine-p-nitroaniline-dihydrochloride (S-2765) are added to a 96-well assay plate containing either inhibitor or buffer (50 mM Tris-HCl, pH 8.0, 100 mM NaCl, 0.1% BSA). The reaction, in a final volume of 100 ul is measured immediately at 405 nm to determine background absorbance. The plate is incubated at room temperature for 60 min, at which time the rate of hydrolysis of the substrate is measured by monitoring the reaction at 405 nm for the release of p-nitroaniline. Percent inhibition of Xa activity is calculated from OD405 nm value from the experimental and control sample.
Recombinant soluble TF, consisting of amino acids 1-219 of the mature protein sequence was expressed in E. coli and purified using a Mono Q Sepharose FPLC. Recombinant human VIIa was purchased from American Diagnostica, Greenwich Conn. and chromogenic substrate N-Methylsulfonyl-D-phe-gly-arg-p-nitroaniline was prepared by American Peptide Company, Inc., Sunnyvale, Calif. Factor Xa was obtained from Enzyme Research Laboratories, South Bend Ind., thrombin from Calbiochem, La Jolla, Calif., and trypsin and L-BAPNA from Sigma, St. Louis Mo. The chromogenic substrates S-2765 and S-2238 were purchased from Chromogenix, Sweden.

T1 sequence (P00742 235-488 limits assumed): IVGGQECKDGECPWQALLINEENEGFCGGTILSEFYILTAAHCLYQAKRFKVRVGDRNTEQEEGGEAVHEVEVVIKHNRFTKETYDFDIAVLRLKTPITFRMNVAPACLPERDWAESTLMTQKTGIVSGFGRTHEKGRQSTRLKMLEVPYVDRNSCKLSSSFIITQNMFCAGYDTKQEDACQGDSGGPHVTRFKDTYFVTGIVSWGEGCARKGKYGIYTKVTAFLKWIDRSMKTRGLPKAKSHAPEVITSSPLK
T1 sequence (P00742 41-179 limits assumed): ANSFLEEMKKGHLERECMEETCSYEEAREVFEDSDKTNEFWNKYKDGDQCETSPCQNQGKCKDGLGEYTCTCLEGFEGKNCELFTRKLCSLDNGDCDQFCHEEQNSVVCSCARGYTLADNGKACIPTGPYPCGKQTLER

Row | SMILES | IC50 [µM]
1 | CC(C)Nc1ccc(-c2cc(N)cc(N)c2)c(CC(=O)NCc2ccc(C(=N)N)cc2)[n+]1[O-] [Example 7] | > 100
2 | CC(C)Nc1ccc(/C=C/c2ccccc2)c(CC(=O)NCc2ccc(C(=N)N)cc2)[n+]1[O-] [Example 12] | > 100
